Data taken from US8399672B2, “Compound having affinity for amyloid” (Nihon Medi-Physics Co., Ltd., priority 2007, dated 2013).

Assays:
[1] = normal mice, [125I]-labeled, cited from earlier work; for Transfer into brain: 2 minutes after administration
[2] = biological target: T1, amyloid in brain (aggregated Aβ1-42 injected into amygdaloid nucleus) (Homo sapiens, UniProt P05067); assay: Confirmation of imaging of amyloid in brain (autoradiogram of brain slice after tail vein injection, Thioflavin T staining); format: in vivo, male Wistar rat; settings: rat
T1 construct: Aβ1-42 (manufactured by Wako); purchased Wako
Protocol: (1) Aβ1-42 (manufactured by Wako) was dissolved in phosphate buffer (pH 7.4) and shaken at 37° C. for 72 hours, to obtain a 1 mg/mL suspension of aggregated Aβ (hereinafter referred to as amyloid suspension in the Examples).
(2) Under thiopental anesthesia, […] of the amyloid suspension was injected into an amygdaloid nucleus on one side of a male Wistar rat (7-week old). As a control, 2.5 μL of a phosphate buffered physiological saline solution (pH 7.4) was injected into an amygdaloid nucleus on the other side of the rat. The rats were examined 1 day after the injection of the amyloid suspension and the phosphate buffered physiological saline solution (pH 7.4).
(3) Compound 1 in a 10 mg/mL ascorbic acid-containing physiological saline solution (24 MBq/mL in radioactivity concentration), Compound 2 in a 10 mg/mL ascorbic acid-containing physiological saline solution (30 MBq/mL in radioactivity concentration) and Compound 4 in a 10 mg/mL ascorbic acid-containing physiological saline solution (32 MBq/mL in radioactivity concentration) were each prepared to obtain a sample solution. This sample solution was injected under thiopental anesthesia into the rat through the tail vein (dosage: 0.5 mL, dosed radioactivity: 12-15 MBq equivalent).
(4) Brain was removed 60 minutes after the injection to prepare a brain slice of 10 μm in thickness with a microtome (type: CM3050S, manufactured by LEICA). The brain slice was exposed to an imaging plate for 20 hours, and then image analysis was carried out by use of a Bio-imaging Analyzer (type: BAS-2500; manufactured by FUJIFILM Corporation).
(5) After the completion of the image analysis using the Bio-imaging Analyzer, pathological staining with Thioflavin T was carried out to perform imaging by use of a fluorescence microscope (manufactured by NIKON Corporation; type: TE2000-U model; excitation wavelength: 400-440 nm; detection wavelength: 470 nm). Thus, it was confirmed that amyloid was deposited on the slice (FIG. 10b, FIG. 11b and FIG. 12b).
The procedure was conducted in the same manner as in Example 23 except that a solution of Compound 3 in 10 mg/mL ascorbic acid-containing physiological saline solution (32 MBq/mL in radioactive concentration) was used as a sample solution, and a brain was removed 120 minutes after injection of the sample solution.

[3] = Measurement of partition coefficient based on the octanol extraction method (log Poctanol); format: physicochemical; settings: octanol / 10 mmol/L phosphate buffer (pH 7.4); for logD: read-out: logPoctanol value
Protocol: Partition coefficients based on the octanol extraction method (hereinafter referred to as log Poctanol) were measured, which are generally known as an indicator of permeability of compounds through the blood-brain barrier (hereinafter referred to as BBB).
Each diethyl ether solution of Compound 1 (Example 15), Compound 2 (Example 16), Compound 3 (Example 17), Compound 4 (Example 18) and [^123I]-IMPY (Comparative Example 1) was each diluted with 10 mg/mL ascorbic acid-containing physiological saline solution, and adjusted to a radioactive concentration of 20-30 MBq/mL. To 2 mL of octanol, 10 μL each of the solutions was added, and 2 mL of 10 mmol/L phosphate buffer (pH 7.4) was added, followed by stirring for 30 seconds. After each mixture was centrifuged (2000 rpm×60 min.) with a low-speed centrifuge (type: CTD4, manufactured by Hitachi Koki, Co., Ltd.), the octanol layer and the water layer were sampled each in an amount of 1 mL, and subjected to measurement of radioactivity count with an autowell gamma system (Type: ARC-301B, manufactured by Aloka). Using the obtained radioactivity count, log Poctanol was calculated in accordance with the equation (1).

[4] = Measurement of transferability into brain and clearance (radioactive accumulation in brain after intravenous injection); format: in vivo, male Wistar rats; settings: rats; for Radioactive accumulation in brain two minutes after the injection (in words): 2 min; for Radioactive accumulation per unit weight of brain, after 2 min.: 2 min after injection; for Radioactive accumulation per unit weight of brain, after 5 min.: 5 min after injection; for Radioactive accumulation per unit weight of brain, after 30 min.: 30 min after injection; for Radioactive accumulation per unit weight of brain, after 60 min.: 60 min after injection; for Clearance of radioactivity from brain (in words): up to 60 min
Protocol: Using Compounds 1, 2 and 3, a time course change of radioactive accumulation in brain of male Wistar rats (7-week old) was measured.
Compound 1 in 10 mg/mL ascorbic acid-containing physiological saline solution (24 MBq/mL in radioactive concentration), Compound 2 in 10 mg/mL ascorbic acid-containing physiological saline solution (30 MBq/mL in radioactive concentration), Compound 4 in 10 mg/mL ascorbic acid-containing physiological saline solution (32 MBq/mL in radioactive concentration) and Compound 3 in 10 mg/mL ascorbic acid-containing physiological saline solution (30 MBq/mL in radioactive concentration) were prepared to obtain sample solutions. The sample solutions were injected under thiopental anesthesia into the tail vein of the male Wistar rats (7-week old) (dosage: 0.05 mL, dosed radioactivity: 1.2-1.5 MBq equivalent). The rats were sacrificed by bleeding from abdominal artery, and brains were removed and subjected to measurement of mass of brains and further subjected to measurement of radioactivity (hereinafter referred to as A in this Example) with a single channel analyzer (detector type: SP-20 manufactured by OHYO KOKEN KOGYO Co., Ltd.) 2, 5, 30 and 60 minutes after the injection. Further, the radioactivity level of the rest of the whole body was measured in the same manner as above (hereinafter referred to as B in this Example). Using these measurement results, radioactive accumulation per unit weight of brain (% ID/g) at the respective time points of dissection was calculated in accordance with the following formula (2) (Examples 19 to 22).
Separately, [^123I]-IMPY in 10 mg/mL ascorbic acid-containing physiological saline solution (20-30 MBq/mL in radioactive concentration) was prepared, the same operation as above was conducted, and radioactive accumulation per unit weight of brain (% ID/g) at the respective time points of dissection was calculated (Comparative Example 2).
Meanwhile, three animals were used for Examples 19 to 22 and Comparative Example 2 at the respective time points.

[5] = reported in WO03/106439; cited from earlier work
[6] = brain removed 60 minutes after injection

T1 sequence (P05067 672-713): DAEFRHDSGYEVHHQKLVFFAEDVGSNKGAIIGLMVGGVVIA

logD [3]	Radioactive accumulation in brain two minutes after the injection (in words) [4]	Radioactive accumulation per unit weight of brain, after 2 min. [4] [% ID/g]	Radioactive accumulation per unit weight of brain, after 5 min. [4] [% ID/g]	Radioactive accumulation per unit weight of brain, after 30 min. [4] [% ID/g]	Radioactive accumulation per unit weight of brain, after 60 min. [4] [% ID/g]	SMILES	Transfer into brain [1]	Clearance from normal tissues [1]	Accumulation at intracerebral amyloid / capability of imaging intracerebral amyloid [2, 6]	Clearance of radioactivity from brain (in words) [4]	logPoctanol value [3]	Result in reverse mutation test [5]	Accumulation at intracerebral amyloid / capability of imaging intracerebral amyloid ([2]; brain removed 120 minutes after injection)
–	–	–	–	–	–	CN(C)c1ccc(/C=C/c2ccc(I)cc2)cc1 [m-I-SB, (E)-4-dimethylamino-4′-iodostilbene]	transferred into brain	insufficient in clearance from normal tissues	–	–	–	–	–
1.8	significant radioactive accumulation	0.42	0.26	0.04	0.02	COc1cc(-c2cn3cc([123I])ccc3n2)ccc1OCCF [Compound 2, 2-[4′-(2″-fluoroethoxy)-3′-methoxyphenyl]-6-[^123I]iodoimidazo[1,2-a]pyridine]	–	–	property of accumulating at intracerebral amyloid	tendency to rapidly clear away in 60 minutes	–	–	–
–	–	–	–	–	–	CC(=C(C#N)C#N)c1ccc2cc(N(C)CCF)ccc2c1 [FDDNP, 2-(1-{6-[(2-fluoroethyl)(methyl)amino]-2-naphthyl}ethylidene)malononitrile]	–	–	–	–	–	positive	–
–	–	–	–	–	–	CN(C)c1ccc(-c2nc3ccc(I)cc3o2)cc1 [IBOX, 6-iodo-2-[4′-(N,N-dimethylamino)phenyl]benzoxazole]	transferred into brain	insufficient in clearance from normal tissues	–	–	–	–	–
2.6	significant radioactive accumulation	0.70	0.53	0.08	0.03	COc1ccc2nc(-c3ccc(OCCF)c([123I])c3)cn2c1 [Compound 3, 2-[4′-(2″-fluoroethoxy)-3′-[^123I]iodophenyl]-6-methoxyimidazo[1,2-a]pyridine]	–	–	–	tendency to rapidly clear away in 60 minutes	–	–	property of accumulating at intracerebral amyloid
2.7	significant radioactive accumulation	0.80	0.61	0.12	0.03	Cc1cc2nc(-c3ccc(OCCO)cc3)cn2cc1[123I] [Compound 4, 2-[4′-(2″-hydroxyethoxy)phenyl]-6-[^123I]iodo-7-methylimidazo[1,2-a]pyridine]	–	–	property of accumulating at intracerebral amyloid	tendency to rapidly clear away in 60 minutes	–	–	–
–	–	–	–	–	–	CN(C)c1ccc(-c2nc3ccc(I)cc3s2)cc1 [TZDM, 6-iodo-2-[4′-(N,N-dimethylamino)phenyl]benzothiazole]	transferred into brain	insufficient in clearance from normal tissues	–	–	–	–	–
2.3	significant radioactive accumulation	0.74	0.53	0.11	0.03	COc1ccc2nc(-c3ccc(OCCCF)c([123I])c3)cn2c1 [Compound 1, 2-[4′-(3″-fluoropropoxy)-3′-[^123I]iodophenyl]-6-methoxyimidazo[1,2-a]pyridine]	–	–	property of accumulating at intracerebral amyloid	tendency to rapidly clear away in 60 minutes	–	–	–

SMILES	logD [3]	Radioactive accumulation in brain two minutes after the injection (in words) [4]	Radioactive accumulation per unit weight of brain, after 2 min. [4] [% ID/g]	Radioactive accumulation per unit weight of brain, after 5 min. [4] [% ID/g]	Radioactive accumulation per unit weight of brain, after 30 min. [4] [% ID/g]	Radioactive accumulation per unit weight of brain, after 60 min. [4] [% ID/g]	Transfer into brain [1]	Clearance from normal tissues [1]	Accumulation at intracerebral amyloid / capability of imaging intracerebral amyloid [2, 6]	Clearance of radioactivity from brain (in words) [4]	logPoctanol value [3]	Result in reverse mutation test [5]	Accumulation at intracerebral amyloid / capability of imaging intracerebral amyloid ([2]; brain removed 120 minutes after injection)
CN(C)c1ccc(-c2cn3cc([123I])ccc3n2)cc1 [[^123I]-IMPY, reference compound]	–	–	1.19	0.97	0.23	0.09	–	–	–	–	1.9	–	–
